Test results reported in ChEMBL document CHEMBL3792355, “Novel pyrazole derivatives with oxa/thiadiazolyl, pyrazolyl moieties and pyrazolo[4,3-d]-pyrimidine derivatives as potential antimicrobial and anticancer agents” (Bioorg Med Chem Lett, 2016).
≈ marks a conversion by molar mass, not a printed value.

What was measured:
[1] = tested on: Candida albicans; assay: Antimicrobial activity against Candida albicans ATCC 14154 incubated for 24 hrs by CLSI/NCCLS protocol based method; assay type: functional
[2] = tested on: Aspergillus flavus; assay: Antimicrobial activity against Aspergillus flavus ATCC 23554 incubated for 24 hrs by CLSI/NCCLS protocol based method; assay type: functional
[3] = tested on: Aspergillus flavus; assay: Antimicrobial activity against Aspergillus flavus ATCC 23554 at 1 mg/ml incubated for 24 hrs by cup diffusion assay; assay type: functional; details: for zone of inhibition at 1000 µg/mL: ATCC 23554, 24 h, read-out: DIZ
[4] = tested on: Candida albicans; assay: Antimicrobial activity against Candida albicans ATCC 14154 at 1 mg/ml incubated for 24 hrs by cup diffusion assay; assay type: functional; details: for zone of inhibition at 1000 µg/mL: ATCC 14154, 24 h, read-out: DIZ
[5] = tested on: Lactococcus lactis; assay: Antimicrobial activity against Streptococcus lactis ATCC 14591 at 1 mg/ml incubated for 24 hrs by cup diffusion assay; assay type: functional; details: ATCC 14591, 24 h, read-out: DIZ
[6] = tested on: Pseudomonas aeruginosa; assay: Antimicrobial activity against Pseudomonas aeruginosa ATCC 27853 incubated for 24 hrs by CLSI/NCCLS protocol based method; assay type: functional; details: ATCC 27853, 24 h
[7] = tested on: Escherichia coli; assay: Antimicrobial activity against Escherichia coli ATCC 25922 incubated for 24 hrs by CLSI/NCCLS protocol based method; assay type: functional; details: ATCC 25922, 24 h
[8] = tested on: Staphylococcus aureus; assay: Antimicrobial activity against Staphylococcus aureus ATCC 25923 at 1 mg/ml incubated for 24 hrs by cup diffusion assay; assay type: functional; details: ATCC 25923, 24 h, read-out: DIZ
[9] = tested on: Lactococcus lactis; assay: Antimicrobial activity against Streptococcus lactis ATCC 14591 incubated for 24 hrs by CLSI/NCCLS protocol based method; assay type: functional; details: ATCC 14591, 24 h
[10] = tested on: Pseudomonas aeruginosa; assay: Antimicrobial activity against Pseudomonas aeruginosa ATCC 27853 at 1 mg/ml incubated for 24 hrs by cup diffusion assay; assay type: functional; details: ATCC 27853, 24 h, read-out: DIZ
[11] = tested on: Staphylococcus aureus; assay: Antimicrobial activity against Staphylococcus aureus ATCC 25923 incubated for 24 hrs by CLSI/NCCLS protocol based method; assay type: functional; details: ATCC 25923, 24 h
[12] = tested on: Escherichia coli; assay: Antimicrobial activity against Escherichia coli ATCC 25922 at 1 mg/ml incubated for 24 hrs by cup diffusion assay; assay type: functional; details: ATCC 25922, 24 h, read-out: DIZ
[13] = tested on: HT-29; assay: cells; details: Homo sapiens, HT-29, 48 h
[14] = tested on: MCF7; assay: Growth inhibition of human MCF7 cells incubated for 48 hrs by MTT assay; assay type: functional, cell-based; details: MCF7, 48 h
[15] = tested on: HepG2; assay: cells; details: Homo sapiens, HepG2, 48 h

| Molecule | MIC [1] [µg/mL] | MIC [2] [µg/mL] | inhibition zone (IZ) [3] [mm] | inhibition zone (IZ) [4] [mm] | zone of inhibition at 1000 µg/mL [5] [mm] | MIC [6] [µg/mL] | MIC [7] [µg/mL] | zone of inhibition at 1000 µg/mL [8] [mm] | MIC [9] [µg/mL] | zone of inhibition at 1000 µg/mL [10] [mm] | MIC [11] [µg/mL] | zone of inhibition at 1000 µg/mL [12] [mm] | IC50 [13] [nM] | MIC ([1]; ATCC 14154, 24 h) [µg/mL] | IC50 [14] [nM] | MIC ([2]; ATCC 23554, 24 h) [µg/mL] | zone of inhibition at 1000 µg/mL [3] [mm] | IC50 [15] [nM] | zone of inhibition at 1000 µg/mL [4] [mm] |
| --- | --- | --- | --- | --- | --- | --- | --- | --- | --- | --- | --- | --- | --- | --- | --- | --- | --- | --- | --- |
| NYSTATIN | 20 | 25 | 30 | 25 | – | – | – | – | – | – | – | – | – | – | – | – | – | – | – |
| CO/N=C(\C(=O)N[C@@H]1C(=O)N2C(C(=O)O)=C(COC(C)=O)CS[C@H]12)c1csc(N)n1 [CEFOTAXIME] | – | – | – | – | 30 | 10 (≈ 22 µM) | 13 (≈ 28.5 µM) | 31 | 12 (≈ 26.3 µM) | 18 | 15 (≈ 32.9 µM) | 26 | – | – | – | – | – | – | – |
| Nn1c(=S)[nH]c2c(-c3ccc(Cl)cc3)n[nH]c2c1=O | – | – | – | – | 15 | 15 (≈ 51.1 µM) | 20 (≈ 68.1 µM) | 20 | 20 (≈ 68.1 µM) | 10 | 20 (≈ 68.1 µM) | 8 | 1330 | 40 (≈ 136 µM) | 840 | 40 (≈ 136 µM) | 25 | 1550 | 15 |
| Cc1csc(NNC(=O)c2[nH]nc(-c3ccc(Cl)cc3)c2N)n1 | – | – | – | – | 22 | 15 (≈ 43 µM) | 20 (≈ 57.3 µM) | 28 | 10 (≈ 28.7 µM) | 12 | 15 (≈ 43 µM) | 16 | 420 | 40 (≈ 115 µM) | 220 | 45 (≈ 129 µM) | 28 | 560 | 26 |
| Cc1nc(Cl)c2[nH]nc(-c3ccc(Cl)cc3)c2n1 | – | – | – | – | 15 | 35 (≈ 125 µM) | 50 (≈ 179 µM) | 18 | 35 (≈ 125 µM) | 10 | 40 (≈ 143 µM) | 12 | 1520 | 22 (≈ 78.8 µM) | 1770 | – | 25 | 1620 | 22 |
| Cc1cc(C)n(C(=O)c2[nH]nc(-c3ccc(Cl)cc3)c2N)n1 | – | – | – | – | 30 | 15 (≈ 47.5 µM) | 20 (≈ 63.3 µM) | 32 | 15 (≈ 47.5 µM) | 20 | 25 (≈ 79.2 µM) | 22 | 1450 | – | 1450 | – | 26 | 1620 | 18 |
| CC1=NN(C(=O)c2[nH]nc(-c3ccc(Cl)cc3)c2N)C(=O)C1 | – | – | – | – | 26 | 20 (≈ 62.9 µM) | 25 (≈ 78.7 µM) | 32 | 20 (≈ 62.9 µM) | 20 | 30 (≈ 94.4 µM) | 22 | 2780 | 35 (≈ 110 µM) | 2540 | 40 (≈ 126 µM) | 35 | 2530 | 18 |
| Cc1nc2c(-c3ccc(Cl)cc3)n[nH]c2c2nnnn12 | – | – | – | – | 20 | 15 (≈ 52.5 µM) | 10 (≈ 35 µM) | 18 | 10 (≈ 35 µM) | 8 | 20 (≈ 70 µM) | 10 | 290 | 22 (≈ 77 µM) | 130 | – | 26 | 360 | 22 |
| Cc1nn(C(=O)c2[nH]nc(-c3ccc(Cl)cc3)c2N)c(C)c1Cl | – | – | – | – | 16 | 10 (≈ 28.6 µM) | 15 (≈ 42.8 µM) | 15 | 5 (≈ 14.3 µM) | 13 | 10 (≈ 28.6 µM) | 15 | 1100 | 45 (≈ 128 µM) | 780 | 50 (≈ 143 µM) | 20 | 970 | 16 |
| NC(=S)NNC(=O)c1[nH]nc(-c2ccc(Cl)cc2)c1N | – | – | – | – | 30 | 40 (≈ 129 µM) | 25 (≈ 80.4 µM) | 34 | 35 (≈ 113 µM) | 16 | 30 (≈ 96.5 µM) | 22 | 5590 | 50 (≈ 161 µM) | 4350 | 45 (≈ 145 µM) | 25 | 4060 | 20 |
